Experimental data taken from US20060263809A1, “Method for sensitive measure of low level apoptosis in cells” (The Rgents of The University of California, priority 2005, published 2006).
Entries after “also recorded” stand apart in the source; their conditions may differ. *1 amine or outer side, *2 acyl side, *3 side chain or, on linkers, in order; H or OH if unused. Where a SMILES comes first, the peptide text is derived from it. Bridges are numbered along the chain shown (N, C = ends). Roman numbers before positions name the chains, in order. [ ]: non-standard residue; d: D form. The star is where a group is joined. Actinocin(9to1) = Cc1c2oc3c(C)ccc(C(=O)[*:1])c3nc-2c(C(=O)[*:2])c(N)c1=O; NMeV = CN[C@H](C(=O)O)C(C)C; Cbz = O=C(OCc1ccccc1)*; Sar = CNCC(=O)O; CH2F = FC*

What was measured:
MEFs [1] = test: Cell detachment scoring of Act-D-treated cultures with caspase inhibitors; format: cell-based, mouse; conditions: Act-D 40 nM, 3 days
Method: MEFs were given Act-D (40 nM in DMSO) or DMSO and either no inhibitor, zVAD (100 μM) or QVD (40 μM). After 3 days, the cells were photographed at 10× magnification.
(§1) Subconfluent cultures were treated with the caspase inhibitors zVAD or QVD together with actinomycin D (Act-D; 40 nM), which is known to induce cell death […]. Initially, the cultures were simply scored for cell detachment, a late event in the apoptotic response of adherent cells.

MEFs [2] = test: Caspase-independent cytochrome c release (CICR) assay, diffuse cytochrome c immunostaining; format: cell-based, mouse; conditions: for Diffuse cyt c (%): Act-D 40 nM, QVD 40 μM
Method: Caspase-independent cytochrome c release (CICR) assay. 3×10^4 cells were plated in each well of a Lab-Tek 4 well chamber slide (Nalge Nunc International, Naperville, Ill.) and treated with Act-D (40 nM), DMSO (0.2%), QVD (40 μM), or QVD plus Act-D for 1, 2, or 3 days. QVD (and Act-D+QVD) was replaced each day. At the end of the experiment, cells were washed twice with PBS and fixed with 4% formaldahyde in PBS for 5 minutes at room temperature. The cells were then washed twice with PBS and then incubated in blocking buffer (3% BSA and 0.1% Triton-X in PBS) for 30 min at room temperature. Cells were incubated for 1 hour at room temperature with anti-cytochrome c (Pharmingen, San Jose, Calif.) diluted 1:800 and 15 μg/ml Hoechst 33342 in blocking buffer. Cells were washed 5 times with PBS, and incubated with anti-mouse secondary antibody for 1 hour at room temperature. The cells were washed 5 times with PBS and then mounted in Prolong (Molecular Probes, Eugene, Oreg.).
Cells were scored as apoptotic if cytochrome c appeared diffuse and met the following criteria: 1) presence of diffuse cytochrome c in both the cytoplasm and nucleus; 2) lack of reticulated or punctate staining in the cytoplasm. Typically images were acquired using a 20× objective, and 500-800 cells were scored. For the exact number of cells counted in FIGS. 3A, 4, and 5, see Table 1 below. Nuclei were counted using images of uniformly illuminated Hoechst staining imported into Image J (URL: <http://rsb.info.nih.gov/ij/>).

HeLa cells = test: Cytochrome c immunocytochemistry of HeLa cells treated with ActD and ZVAD-fmk; format: cell-based; conditions: 24 h after treatment
Method: FIGS. 6A and 61B are photographs of the cells after the apoptosis assay. FIG. 6A. Immunocytochemistry. HeLa cells were treated with vehicle (DMSO Control), actinomycin D (ActD) to induce apoptosis, or ActD plus the caspase inhibitor ZVAD-fmk. 24 h later, cells were immunostained for cytochrome c (green) and counterstained with DAPI (blue) to identify nuclei. In control cells, cytochrome c is evident as punctate mitochondrial staining. […] FIG. 6B. Quantification. The % cells with diffuse cytochrome c staining (x axis) were scored 24 h after treatment with vehicle (Contr), ActD or ActD plus ZVAD (ZV). Cytochrome c staining in the presence of ZVAD allows apoptotic cells to accumulate over 24 h.

MEFs [3] = test: PI exclusion assay (flow cytometry); format: cell-based, mouse
Method: PI exclusion assay. 1×10^5 cells were treated with Act-D (40 nM in DMSO), DMSO (0.2%), QVD (40 μM), or QVD plus Act-D for 1, 2, or 3 days. QVD (and Act-D+QVD) was replaced each day. At the end of the experiment, PI was added to a final concentration of 10 μg/ml. Following 10 min in the incubator, media were collected and the cells were washed with PBS. The PBS was also collected and combined with the media. The remaining cells were trypsinized and then combined with the mix of PBS and media. The cells were centrifuged at 200 g for 10 minutes and resuspended in 300 μl of PBS. The cells were then quantified and analyzed as above (Cotter and Martin, 1996).

MEFs [4] = test: Mitochondrial membrane potential (TMRE, flow cytometry); format: cell-based, mouse
Method: Mitochondrial Membrane Potential. 1×10^5 cells were treated with Act-D and QVD for 1, 2, or 3 days. QVD (and Act-D+QVD) was replaced each day. At the end of the experiment, media were collected and the cells were washed with PBS. The PBS was collected and combined with the media. Cells were trypsinized and resuspended in medium and PBS, as described above. The cells were spun for 5 min at 200 g and resuspended in fresh media containing TMRE (50 nM) and allowed to incubate at 37° C. for 30 minutes. Fluorescence was quantified in FL-2 using a FACscan and analyzed with Cellquest software (Waterhouse et al., 2001).

HMECs = test: Cell detachment scoring of Act-D-treated cultures with caspase inhibitors; format: cell-based, human; conditions: for detachment of cells in the presence of Act-D and caspase inhibitor: Act-D treated
Method: as §1

WI-38 fibroblasts = test: as above; format: cell-based, human; conditions: for attachment of Act-D treated cells with caspase inhibitor: WI-38 cells
Method: as §1

MEFs [5] = test: Sub-G1 peak determination (flow cytometry); format: cell-based, mouse
Method: Cell Death Assays: Sub-G1 peak determination. 1×10^5 cells were treated with Act-D (40 nM in DMSO), DMSO (0.2%), QVD (40 μM), or QVD plus Act-D for 1, 2, or 3 days. QVD (and Act-D+QVD) was replaced each day. At the end of the experiment, media were collected and washed once with PBS. The PBS was also collected and then the cells were trypisized. Trypsinization was stopped by addition of the previously collected and pooled media and PBS. Cells were then collected by centrifugation at 200 g for 10 minutes, resuspended in 70% ethanol and stored at −20° C. overnight. The fixed cells were resuspended in 300 μl of PBS containing 10 μg/ml PI and 0.5 μg/ml RNase A and incubated at room temperature for 1 hour. Cells were quantified by flow cytometery using a FACscan (Becton Dickinson) in FL-3 and analyzed using Cellquest software (BD) (Cotter and Martin, 1996).

HCA-2 fibroblasts = test: Growth curves in media with QVD; format: cell-based; conditions: 0.1% DMSO + 40 μM QVD
Method: (§2) HCA-2 fibroblasts and HMEC were grown in normal growth media (DMEM, MEGM) or normal growth media supplemented with 0.1% DMSO (DMSO) or 0.1% DMSO+40 μM QVD (QVD). HCA-2 growth curves were averaged triplicates (HCA-2) or duplicates (HMEC) and error bars (HCA-2) are SD.

[6] = cited from earlier work
HMEC = test: Growth curves in media with QVD; format: cell-based, human; conditions: 0.1% DMSO + 40 μM QVD
Method: as §2

[7] = MEFs treated with Act-D for one day

Structure (SMILES): Cc1c2oc3c(C)ccc(C(=O)N[C@@H]4C(=O)N[C@H](C(C)C)C(=O)N5CCC[C@H]5C(=O)N(C)CC(=O)N(C)[C@@H](C(C)C)C(=O)O[C@@H]4C)c3nc-2c(C(=O)N[C@@H]2C(=O)N[C@H](C(C)C)C(=O)N3CCC[C@H]3C(=O)N(C)CC(=O)N(C)[C@@H](C(C)C)C(=O)O[C@@H]2C)c(N)c1=O [Act-D, actinomycin D] (I: T[dV]P[Sar][NMeV] / II: T[dV]P[Sar][NMeV]; ester I:1-I:C, II:1-II:C; linker I:N-II:N via Actinocin(9to1))
- apoptotic morphology and detachment (MEFs [1]): adopt characteristic apoptotic morphology and detach from the culture dish
- cells apoptotic by CICR assay (MEFs [2]; MEFs treated with Act-D for one day, CICR assay (QVD present)): 13%
- cells dead or dying by CICR assay (MEFs [2]; MEFs treated with Act-D, after 3 days, CICR assay (QVD present)): 96%
- time at which Act-D begins killing cells by CICR assay (MEFs [2]; MEFs, CICR assay): ≤ 24 h
- Diffuse cyt c (%) (MEFs [2]; MEFs, Day 1): 0.8%
- Diffuse cyt c (%) (MEFs [2]; MEFs, Day 2): 13.4%
- cells remaining on dish and cytochrome c staining (HeLa cells): fewer cells are present on the culture dish
- cells died by PI exclusion assay (MEFs [3]; MEFs treated with Act-D, after 3 days): 74%
- time after addition at which manifestations of apoptosis were apparent (propidium iodide exclusion) (MEFs [3]; MEFs, Act-D): 1 to 2 days
- apoptosis detected by loss of ΔΨm (MEFs [4]; [7]): little or no apoptosis
- time after addition at which manifestations of apoptosis were apparent (reduction in ΔΨm) (MEFs [4]; MEFs, Act-D): 1 to 2 days
- apoptotic morphology and detachment (HMECs; Act-D 40 nM, 3 days): adopt characteristic apoptotic morphology and detach from the culture dish
- apoptotic morphology and detachment (WI-38 fibroblasts; WI-38, Act-D 40 nM, 3 days): adopt characteristic apoptotic morphology and detach from the culture dish
- apoptosis detected by subG1 peak determination (MEFs [5]; [7]): little or no apoptosis
- time after addition at which manifestations of apoptosis were apparent (sub-G1 DNA peak) (MEFs [5]; MEFs, Act-D): 1 to 2 days

Structure (SMILES): COC(=O)C[C@H](NC(=O)[C@H](C)NC(=O)[C@@H](NC(=O)OCc1ccccc1)C(C)C)C(=O)CF [zVAD, benzyloxycarbonyl-Val-Ala-Asp-fluoromethylketone] (Cbz-Val-Ala-Asp(OMe)-CH2F)
- prevention of Act-D-induced cell detachment (MEFs [1]; zVAD 100 μM): failed to prevent detachment
- detachment of cells in the presence of Act-D and caspase inhibitor (HMECs): a larger fraction detached
- attachment of Act-D treated cells with caspase inhibitor (WI-38 fibroblasts): remained equally well attached

Structure (SMILES): CC(C)[C@H](NC(=O)c1ccc2ccccc2n1)C(=O)N[C@@H](CC(=O)O)C(=O)COc1c(F)cccc1F [QVD, Quinoline-Val-Asp-Ch2-O-Ph]
- prevention of Act-D-induced cell detachment (MEFs [1]; QVD 40 μM): preserves adhesion; also recorded: prevented most of the cell detachment
- effect on cell growth (HCA-2 fibroblasts): does not inhibit growth
- Diffuse cyt c (%) (MEFs [2]; MEFs, Day 1): 2.0%
- Diffuse cyt c (%) (MEFs [2]; MEFs, Day 2): 2.3%
- Diffuse cyt c (%) (MEFs [2]; MEFs, Day 3): 3.2%
- dose with no toxicity / administered safely ([6]; animal, data sheet of distributor MP Biomedicals): 1 g/kg of body weight
- dose reported as safely used ([6]; in vivo, Yang et al. 2004): 20 mg/kg of body weight
- effect on cell growth (HMEC): does not inhibit growth
- effect on Act-D-induced loss of propidium iodide exclusion (MEFs [3]; MEFs, Act-D, 40 μM QVD): substantially or completely reduced
- effect on Act-D-induced reduction in ΔΨm (MEFs [4]; MEFs, Act-D, 40 μM QVD): substantially or completely reduced
- detachment of cells in the presence of Act-D and caspase inhibitor (HMECs): a small fraction detached
- attachment of Act-D treated cells with caspase inhibitor (WI-38 fibroblasts): remained equally well attached
- effect on Act-D-induced sub-G1 DNA peak (MEFs [5]; MEFs, Act-D, 40 μM QVD): substantially or completely reduced
